Results: patent US5614504A, “Method of making inosine monophosphate derivatives and immunopotentiating uses thereof” (The University of South Florida, priority 1995, dated 1997)

What was measured:
[1] = in vitro; format: in vitro ADME, Crotalus atrox; conditions: rattlesnake, pH 7.3; 0.02 units 5'-nucleotidase, 37° C., 10 minutes; four experiments; read-out: Hydrolysis (%)
Procedure: Nucleotide samples (40-60 nmoles) were incubated at 37° C. for 10 minutes with 0.02 units 5'-nucleotidase in a total volume of 100 μl containing […] HEPES, pH 7.3 and […] MgCl2. […] Phosphate was determined by the absorbance of 820 nm. Blanks consisting of nucleotide but no enzyme were tested in parallel to correct for non-enzymatic hydrolysis.

[2] = tested on: human peripheral blood lymphocytes (HPBL); test: Response of normal HPBL to PHA (tritiated thymidine incorporation); format: cell-based; conditions: 0.1-100 μg/ml; FIG. 1
Procedure: (§1) In vitro: Both human peripheral blood lymphocytes (HPBL) and mouse spleen lymphocytes (MSL) were employed. […] For HPBL transformation, PHA and PWM were used at 0.5 μg/ml. For MSL transformation, Con A was used at 0.5 μg/ml, phytohemagglutinin (PHA, Murex Diagnostics, Atlanta, Ga.) at 0.5 μg/ml and lipopolysaccharide endotoxin (LPS, Sigma, St. Louis, Mo.) at 10 μg/ml.
(§2) They were cultured in microwell plates at 1.5×10^6 cells/ml of minimal essential media (MEM, Gibco Labs, Grand Island, N.Y.) with 5% fetal calf serum (FCS, Hyclone Labs, Logan, Utah) and tested for their proliferative response to mitogens as measured by incorporation of (^3 H) tritiated thymidine (New England Nuclear, Wilmington Del., […]; 2.5 μCi/ml) during a terminal pulse followed by liquid scintillation spectrometry.

[3] = tested on: CD8+ lymphocytes; test: PHA response of CD8+ enriched human lymphocytes; format: cell-based; conditions: MIMP 1-200 μg/ml, 3 donors, p <0.01
Description: Human CD4+ and CD8+ lymphocyte subsets were obtained from normal controls using commercial panning techniques (Applied Immune Sciences, Santa Clara, Calif.).
Human peripheral blood lymphocytes are on average approximately 80% T lymphocytes and 20% B lymphocytes and of the T lymphocytes, 2/3 are of the CD4+ helper/inducer phenotype and 1/3 are the CD8+ suppressor/cytotoxic phenotype. Enrichment of CD4+ T cells or CD8+ T cells can be achieved through reduction of the other phenotype (>98%) removal using adherence to monoclonal antibody-coated flasks (panning).

[4] = tested on: human peripheral blood lymphocytes (HPBL); test: Reversal of suppression of HPBL PHA response by HIV gp41 peptide, interferon α and PGE2; format: cell-based; conditions: for effect on gp41 peptide-suppressed PHA proliferation: MIMP 0.1-100 μg/ml
Description: A 17 amino acid sequence from the gp41 portion of the gp16O peptide of the human immunodeficiency virus (HIV) was synthesized and kindly provided to us by M. Strand (Johns Hopkins University, Baltimore, Md.) (Reugg and Strand, 1990).
Prostaglandin E2 was obtained from Sigma Chemicals (St. Louis, Mo.) and recombinant interferon-α (IFNα, Intron A) was obtained from Schering Corp. (Kenilworth, N.J.).
A synthetic 17 amino acid peptide representing the immunosuppressive site of the intramembranous gp41 portion of the human immunodeficiency virus (HIV) was tested on lymphocytes from controls. […] The effect of MIMP from 0.1-100 μg/ml was examined in combination with varying degrees of inhibition by the peptide.
Virus infections are associated with depressed lymphoproliferative responses.

[5] = tested on: mouse spleen lymphocytes (MSL); test: Mouse spleen lymphocyte proliferation to Con A; format: cell-based
Procedure: as §1, §2

[6] = tested on: spleen lymphocytes; test: In vitro response to mitogens following in vivo oral administration; set-up: species or system mice; conditions: oral Me-IMP for five days, 0-100 mg/kg
Procedure: In vivo: Compounds were administered orally, by garage, or intraperitoneally. At termination, spleens were obtained as described in Florentin et al. (1982) and cells were prepared for proliferative response with Con A=0.5 μg/ml, PHA=0.5 μg/ml or LPS=0.5 μg/ml.
Spleen lymphocytes were obtained from mice that had been orally administered Me-IMP for five days, range of 0-100 mg/kg body weight, and then sacrificed. The spleen lymphocytes were incubated with PHA (0.5 μg/ml) or Con A (0.5 μg/ml) for 48 hours. Cultures were pulsed with tritiated thymidine for the last 18 hours.

[7] = Acute toxicity (LD50); conditions: in vivo
[8] = tested on: delayed-type hypersensitivity response; test: Delayed-type hypersensitivity in vivo (footpad swelling, SRBC); set-up: species or system mice
Procedure: Mice were immunized by intraperitoneal administration of SRBC in graded doses of from 10^6 to 10^9 cells. […] A dose of 10^7 was chosen to immunize animals in this study.
Four days following immunization, each mouse was challenged by injecting the left hind footpad subcutaneously with 10^8 SRBC in 50 μl phosphate buffered saline (PBS). Vehicle (50 μl PBS) was injected subcutaneously into the right hind footpad as a control. The compounds being tested were injected intraperitoneally either at the time of immunization or at the time of elicitation. After 24 hours of challenge, footpad swelling was measured as the increase in footpad thickness (left minus right) using Engineer's calipers.
The results are expressed as increments of footpad thickness in 0.1 mmunits. The characteristics of delayed-type hypersensitivity measured in this way have been described previously in MacDonald et al. (1979). FIGS. 13 and 14 show the results of this testing.

[9] = tested on: Friend Leukemia Virus (FLV); test: Survival of mice infected with Friend Leukemia Virus; format: in vivo, BALB/c mice; conditions: 1 mg/kg/day i.p. day 3 to day 13; P<0.004 Wilcoxon
Procedure: Control mice were treated with saline intraperitoneally from day 3 to day 13 following infection, and Me-IMP treated mice were treated with 1 mg/kg/day from day 3 to day 13, and the day of death was recorded.

[10] = tested on: IL-2; test: PHA-induced IL-2 production; format: cell-based; conditions: preliminary data
[11] = tested on: IL-10; test: PHA-induced IL-10 production; format: cell-based; conditions: preliminary data
[12] = tested on: prothymocytes; conditions: Touraine et al., 1991; cited from earlier work

COP(=O)(O)OC[C@H]1O[C@@H](n2cnc3c(=O)[nH]cnc32)[C@H](O)[C@@H]1O [Me-IMP, Methyl-5'-inosine-monophosphate]
metabolised at 10 min [1]: 2.1% | relative activity on HPBL response to PHA [2]: more active | PHA response of CD8+ lymphocytes [3]: significantly augmented | effect on gp41 peptide-suppressed PHA proliferation ([4]; inhibition more severe (>50%)): not significant | effect on gp41 peptide-suppressed PHA proliferation ([4]; peptide-induced suppression less than 50%): restored the proliferative responses to near-normal ranges | effect on rIFN-α inhibition of PHA response ([4]; MIMP 1, 10, 100 μg/ml, 10 and 100 units/ml IFN α): reverse the inhibition when it is moderate | effect on PGE2 inhibition of PHA response ([4]; MIMP 1-100 μg/ml, PGE2 10^-5 M): reverse the inhibition | relative potency, in vitro mouse lymphocyte proliferation [5]: most potent | proliferative responses of MSL to Con A ([5]; 0.1, 1, 10, 100 μg/ml, Con A 0.5 μg/ml): stimulated the proliferative responses | Con A response of spleen lymphocytes [6]: stimulated | PHA response of spleen lymphocytes [6]: stimulated | LD50 ([7]; ip, intraperitoneally): > 500 mg/kg | LD50 ([7]; po, orally): > 5000 mg/kg | delayed-type hypersensitivity response ([8]; one dose i.p. at the time of challenge): not significant | delayed-type hypersensitivity response ([8]; one dose i.p. at the time of immunization): significantly stimulated | mean survival time (MST) [9]: larger mean survival time | effect on PHA-induced IL-2 [10]: only a small effect | effect on IL-10 production [11]: potently inhibits | differentiation markers of prothymocytes [12]: induce differentiation markers of prothymocytes
